Results on 32 compounds are retold here after publication PMC11163988, “Cloning, expression, and purification of an α-carbonic anhydrase from Toxoplasma gondii to unveil its kinetic parameters and anion inhibition profile” (Journal of Enzyme Inhibition and Medicinal Chemistry, 2024).

Assay [1] deals with Tg_CA (Toxoplasma gondii α-CA) (Toxoplasma gondii, UniProt S8F479). The experiment in a line: biochemical. Format: biochemical.
The target of assay [2] is hCA II (Homo sapiens, UniProt P00918). The experiment in a line: stopped-flow CO2 hydrase assay, hCA II. Format: biochemical. The note with it: 20 mM Hepes pH 7.5, 20 mM NaClO4, mean from 3 assays.
Setting [3] is: pH 7.5, read-out: KI (mM) Tg_CAα.

Molecules are shown by their SMILES. Where two headings read alike, the source gives them in different places.

Tg_CA (Toxoplasma gondii α-CA), sequence (S8F479 486-829 limits assumed): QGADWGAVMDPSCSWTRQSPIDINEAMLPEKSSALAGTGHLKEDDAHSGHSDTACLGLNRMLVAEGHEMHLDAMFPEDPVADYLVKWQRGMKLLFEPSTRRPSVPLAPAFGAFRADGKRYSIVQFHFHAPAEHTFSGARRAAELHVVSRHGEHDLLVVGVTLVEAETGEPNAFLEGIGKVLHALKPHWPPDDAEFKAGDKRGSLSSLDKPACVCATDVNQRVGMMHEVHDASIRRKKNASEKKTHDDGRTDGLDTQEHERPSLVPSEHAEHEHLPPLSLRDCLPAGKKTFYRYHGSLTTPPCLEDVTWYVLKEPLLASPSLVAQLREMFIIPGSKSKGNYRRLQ

As to `OB1OB2OB(O)OB(O1)O2` [B4O7^2–, tetraborate], the inhibition constant (Ki) in assay [1] (setting [3]) was found to be 63.9 mM.

Turning to `F[B-](F)(F)F` [BF4^–, tetrafluoroborate], in assay [1] (setting [3]), the Ki is 25 mM.

For `Br` [Br^–], the Ki in assay [1] (setting [3]) is greater than 100 mM.

Consider `O=S(=O)(O)C(F)(F)F` [CF3SO3^–, triflate], for which, in assay [1] (setting [3]), the inhibition constant Ki amounted to 7.1 mM.

With `N#CO` [CNO^–, cyanate], the inhibitory constant (Ki) in assay [1] (setting [3]) came to 49.6 mM.

With `O=C(O)O` [CO3^2–, carbonate], in assay [1] (setting [3]), the Ki was determined as 98.2 mM.

Take `S=C(S)S` [CS3^2–, trithiocarbonate]: the Ki in assay [1] (setting [3]) came to 4.8 mM.

`[O-][Cl+3]([O-])([O-])O` [ClO4^–, perchlorate]: the Ki in assay [1] (setting [3]) stood at 77.8 mM.

In the case of `Cl` [Cl^–, chloride], in assay [1] (setting [3]), the inhibition constant Ki is greater than 100 mM.

With `CCN(CC)C(=S)S` [Et2NCS2^–, N,N-diethyldithiocarbamate], the Ki in assay [1] (setting [3]) came out at 3.1 mM.

Regarding `F` [F^–], the inhibition constant Ki in assay [1] (setting [3]) is greater than 100 mM.

As to `NS(N)(=O)=O` [H2NSO2NH2, sulfamide], in assay [1] (setting [3]), the inhibitory constant (Ki) came out at 0.92 mM.

Take `NS(=O)(=O)O` [H2NSO3H, sulphamic acid]: the inhibition constant Ki in assay [1] (setting [3]) worked out at 0.68 mM.

On to `O=C(O)O` [HCO3^–, bicarbonate], for which, in assay [1] (setting [3]), the inhibitory constant (Ki) is greater than 100 mM.

Regarding `O=S(O)O` [HSO3^–, bisulphite], the Ki in assay [1] (setting [3]) amounted to 9.1 mM.

Regarding `S` [HS^–, hydrogensulfide], in assay [1] (setting [3]), the Ki was determined as 45.7 mM.

For `I` [I^–], the Ki in assay [1] (setting [3]) is greater than 100 mM.

Regarding `[N-]=[N+]=[N-]` [N3^–, azide], the Ki in assay [1] (setting [3]) is greater than 100 mM.

On to `O=S(=O)(O)NS(=O)(=O)O` [NH(SO3)2^2–, iminodisulfonate], for which the Ki in assay [1] (setting [3]) was 8.5 mM.

As to `O=NO` [NO2^–, nitrite], the Ki in assay [1] (setting [3]) was determined as 6.4 mM.

With `O=[N+]([O-])O` [NO3^–, nitrate], the Ki in assay [1] (setting [3]) was 8.5 mM.

As for `O=P(O)(O)OP(=O)(O)O` [P2O7^4–, diphosphate], the inhibitory constant (Ki) in assay [1] (setting [3]) was 35.7 mM.

In the case of `F[P-](F)(F)(F)(F)F` [PF6^–, haxafluorophosphate], the Ki is 1.9 mM in assay [1] (setting [3]) and greater than 100 mM in assay [2].

Compound `OB(O)c1ccccc1` [Ph-B(OH)2, phenylboronic acid] came in with a Ki in assay [1] of 5.1 mM.

In the case of `[O]=[Re](=[O])(=[O])[OH]` [ReO4^–, perrhenate], in assay [1] (setting [3]), the inhibition constant Ki amounted to 3.4 mM.

Take `[O]=[Ru](=[O])(=[O])=[O]` [RuO4^–, perruthenate]: the inhibition constant (Ki) in assay [1] (setting [3]) came out at 2.3 mM.

As for `O=S(=O)(O)OOS(=O)(=O)O` [S2O8^2–, peroxydisulfate], the inhibitory constant (Ki) in assay [1] (setting [3]) was 26.6 mM.

`N#CS` [SCN^–, thiocyanate]: the inhibition constant (Ki) in assay [1] (setting [3]) was 31.9 mM.

In the case of `O=S(=O)(O)O` [SO4^2–, sulphate], in assay [1] (setting [3]), the Ki was determined as 6 mM.

As to `N#C[SeH]` [SeCN^–, selenocyanate], the Ki in assay [1] (setting [3]) was greater than 100 mM.

`O=[Te](=O)(O)O` [TeO4^2–, tellurate]: in assay [1] (setting [3]), the inhibitory constant (Ki) amounted to 2.5 mM.

As for `[O]=[V]([OH])([OH])[O][V](=[O])([OH])[OH]` [V2O7^4–, divanadate], the Ki in assay [1] (setting [3]) stood at 39.8 mM.

The term Ki denotes the equilibrium dissociation constant of an inhibitor or competing ligand from its target.
